Values quoted from earlier work, collected in patent publication US20220339173A1, “ORAL COMPOSITION FOR IMPROVING MEMORY-LEARNING ABILITY” (priority 2019, published 2022).

Test system: c-Fos activity

phosphatidylserine
c-Fos activity in the hippocampus (hippocampus): no changes | c-Fos activity in the paraventricular nucleus (paraventricular nucleus): changes in c-Fos activity in the brain region are found
